23 molecules from patent US10294212B2 (CURADEV PHARMA PRIVATE LTD., priority 2013, dated 2019) can be followed below.

As usually defined, the IC50 is the concentration at which inhibition is half-maximal.

Assay [1] deals with Human indoleamine 2,3-dioxygenase1 (hIDO1) (Homo sapiens (Human), UniProt P14902). Kind of assay: In-vitro IDO1 enzyme assay (conversion of L-tryptophan to KYN). The format is biochemical. The settings on record: read-out: IC50 (IDO1) Enz. Summed up:
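His-tagged hIDO1 (10 nM, E. coli-expressed) incubated with 30 μM L-tryptophan, 20 mM ascorbate, 10 μM methylene blue and 100 μg/mL catalase in 50 mM potassium phosphate pH 6.5, 30 min at 37 °C. TCA stop, then 65 °C hydrolysis; KYN measured by HPLC-UV at 360 nm or LC/MS/MS. IC50 by nonlinear regression versus 1% DMSO control.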

In the next assay the target is IDO1 in HeLa cells (Homo sapiens (Human), UniProt P14902). Nature of the assay: HeLa cell based IDO1 assay (IFNγ-induced, KYN in supernatant). The method in brief:
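HeLa cells were induced overnight with IFNγ (50 ng/mL), washed, then exposed to compound (typically 10 μM–1 nM) in HBSS with 80 μM L-tryptophan. Supernatant was TCA-treated at 65 °C for 15 min to convert N-formylkynurenine, and KYN was measured by HPLC-UV at 360 nm. IC50 came from nonlinear regression against a 1% DMSO control.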

Assay [2] concerns the target Human TDO (hTDO)-transfected CHO-K1 cells (Homo sapiens (Human), UniProt P48775). Nature of the assay: CHO-K1 cell based TDO assay. The settings on record: hTDO cellular assay. Summed up:
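Stably hTDO-expressing CHO-K1 cells were exposed to compounds (typically 31 μM to 10 nM) in HBSS with 80 μM L-tryptophan for 2 h. TCA-treated supernatant was heated at 65° C for 15 min to convert N-formylkynurenine, then kynurenine was quantified by LC/MS/MS. IC50 came from percent inhibition versus DMSO control.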

A value given as a limit tells only on which side of the number the result lay.

Chain of Human indoleamine 2,3-dioxygenase1 (hIDO1) (P14902 whole entry): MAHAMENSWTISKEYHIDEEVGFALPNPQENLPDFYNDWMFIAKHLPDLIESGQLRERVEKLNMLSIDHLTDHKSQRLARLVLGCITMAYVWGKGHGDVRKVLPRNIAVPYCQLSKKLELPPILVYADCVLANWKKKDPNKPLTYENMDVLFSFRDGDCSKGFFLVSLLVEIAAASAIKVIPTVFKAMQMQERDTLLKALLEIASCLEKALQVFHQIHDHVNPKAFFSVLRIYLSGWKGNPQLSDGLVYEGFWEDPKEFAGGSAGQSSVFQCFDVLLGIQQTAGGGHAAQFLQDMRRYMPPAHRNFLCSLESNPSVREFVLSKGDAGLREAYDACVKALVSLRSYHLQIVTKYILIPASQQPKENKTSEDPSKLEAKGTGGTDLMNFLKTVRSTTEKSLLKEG
Chain of IDO1 in HeLa cells (P14902 whole entry): as above
Chain of Human TDO (hTDO)-transfected CHO-K1 cells (P48775 whole entry): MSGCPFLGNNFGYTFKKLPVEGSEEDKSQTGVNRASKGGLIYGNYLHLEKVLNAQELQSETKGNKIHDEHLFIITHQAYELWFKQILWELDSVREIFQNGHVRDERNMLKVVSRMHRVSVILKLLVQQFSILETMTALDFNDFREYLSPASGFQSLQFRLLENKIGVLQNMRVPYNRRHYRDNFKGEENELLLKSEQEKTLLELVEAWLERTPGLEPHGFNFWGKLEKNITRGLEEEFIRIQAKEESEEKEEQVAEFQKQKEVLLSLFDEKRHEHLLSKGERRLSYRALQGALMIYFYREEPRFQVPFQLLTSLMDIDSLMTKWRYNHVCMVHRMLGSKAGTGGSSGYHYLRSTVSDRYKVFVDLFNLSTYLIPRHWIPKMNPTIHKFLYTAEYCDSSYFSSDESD

Turning to `Nc1oc2c(I)nccc2c1Nc1ccc(F)c(Cl)c1` [Compound 153, N^3-(3-Chloro-4-fluorophenyl)-7-iodofuro[2,3-c]pyridine-2,3-diamine], the IC50 in assay [1] was less than 200 nM; against IDO1 in HeLa cells, less than 200 nM; in assay [2], less than 500 nM.
Consider `Cc1cc(-c2nccc3c(Nc4ccc(F)c(F)c4)c(N)oc23)ccn1` [Compound 198, N^3-(3,4-Difluorophenyl)-7-(2-methylpyridin-4-yl)furo[2,3-c]pyridine-2,3-diamine], for which the IC50 in assay [1] was less than 200 nM; at IDO1 in HeLa cells it was less than 200 nM; in assay [2], less than 500 nM.
As to `COc1cc2c(Nc3ccc(F)c(Cl)c3)c(N)oc2c(C)n1` [Compound 85, N^3-(3-Chloro-4-fluoro-phenyl)-5-methoxy-7-methyl-furo[2,3-c]pyridine-2,3-diamine], the IC50 in assay [1] was less than 200 nM; against IDO1 in HeLa cells, less than 200 nM; in assay [2] it was 500 to 2000 nM.
Regarding `Cc1cc(-c2nccc3c(Nc4ccc(F)c(Cl)c4)c(N)oc23)cc(C)n1` [Compound 164, N^3-(3-Chloro-4-fluorophenyl)-7-(2,6-dimethylpyridin-4-yl)furo[2,3-c]pyridine-2,3-diamine], the IC50 in assay [1] was less than 200 nM; against IDO1 in HeLa cells it was less than 200 nM; in assay [2], greater than 2000 nM.
Take `Nc1oc2c(-c3ccnc(C(=O)NCCN4CCOCC4)c3)nccc2c1Nc1ccc(F)c(Cl)c1` [Compound 274, 4-(2-Amino-3-((3-chloro-4-fluorophenyl)amino)furo[2,3-c]pyridin-7-yl)-N-(2-morpholinoethyl)picolinamide]: the IC50 in assay [1] is less than 200 nM; against IDO1 in HeLa cells it was less than 200 nM; in assay [2], 500 to 2000 nM.
As to `Nc1oc2c(-c3ccc(F)cc3)nccc2c1Nc1ccc(F)c(Cl)c1` [Compound 147, N^3-(3-Chloro-4-fluorophenyl)-7-(4-fluorophenyl)furo[2,3-c]pyridine-2,3-diamine], the results for the IC50 (in assay [1]; against IDO1 in HeLa cells; in assay [2]) were less than 200 nM, less than 200 nM and 500 to 2000 nM, respectively.
With `Cc1ccc(Nc2c(N)oc3cnccc23)cc1Cl` [Compound 33, N^3-(3-Chloro-4-methylphenyl)furo[2,3-c]pyridine-2,3-diamine], the IC50 in assay [1] is less than 200 nM; against IDO1 in HeLa cells, less than 200 nM; in assay [2], 500 to 2000 nM.
Take `Nc1oc2cnccc2c1Nc1ccc(F)c(Br)c1` [Compound 58, N^3-(3-Bromo-4-fluorophenyl)furo[2,3-c]pyridine-2,3-diamine]: the results for the IC50 (in assay [1]; against IDO1 in HeLa cells; in assay [2]) were less than 200 nM, less than 200 nM and less than 500 nM, respectively.
Consider `Nc1oc2cnccc2c1Nc1cccc(C2CC2)c1` [Compound 42, N^3-(3-Cyclopropylphenyl)furo[2,3-c]pyridine-2,3-diamine], for which the figures for the IC50 (in assay [1]; against IDO1 in HeLa cells; in assay [2]) were less than 200 nM, less than 200 nM and greater than 2000 nM, respectively.
In the case of `N#Cc1ccc2c(Nc3ccccc3Cl)c(N)oc2c1` [Compound 116, 2-Amino-3-((2-chlorophenyl)amino)benzofuran-6-carbonitrile], the IC50 is greater than 1000 nM in assay [1], 200 to 1000 nM at IDO1 in HeLa cells and greater than 2000 nM in assay [2].
Taken in the same sequence, the figures for `NC(=O)c1ccc(-c2nccc3c(Nc4ccc(F)c(Cl)c4)c(N)oc23)cc1` [Compound 151, 4-(2-Amino-3-((3-chloro-4-fluorophenyl)amino)furo[2,3-c]pyridin-7-yl)benzamide] were less than 200 nM, less than 200 nM and 500 to 2000 nM.
Taken in the same sequence, the figures for `Nc1sc2ccc(Br)cc2c1Nc1ccc(F)c(Cl)c1` [Compound 123, 5-Bromo-N^3-(3-chloro-4-fluorophenyl)benzo[b]thiophene-2,3-diamine] were less than 200 nM, 200 to 1000 nM and greater than 2000 nM.
As to `Nc1oc2c(-c3ccnc(C(=O)NC4CCCCC4)c3)nccc2c1Nc1ccc(F)c(Cl)c1` [Compound 257, 4-(2-Amino-3-((3-chloro-4-fluorophenyl)amino)furo[2,3-c]pyridin-7-yl)-N-cyclohexylpicolinamide], the figures for the IC50 (in assay [1]; at IDO1 in HeLa cells; in assay [2]) were less than 200 nM, less than 200 nM and greater than 2000 nM, respectively.
As to `Cc1cc(-c2cccc3c(Nc4cccc(Cl)c4)c(N)sc23)ccn1` [Compound 248, N^3-(3-Chlorophenyl)-7-(2-methylpyridin-4-yl)benzo[b]thiophene-2,3-diamine], the results for the half-inhibitory concentration (IC50) (in assay [1]; against IDO1 in HeLa cells; in assay [2]) were less than 200 nM, less than 200 nM and 500 to 2000 nM, respectively.
As for `Nc1oc2cnccc2c1Nc1ccccc1` [Compound 3, N^3-Phenylfuro[2,3-c]pyridine-2,3-diamine], the IC50 is 200 to 1000 nM in assay [1], less than 200 nM at IDO1 in HeLa cells and less than 500 nM in assay [2].
Taken in the same sequence, the figures for `CCOc1cc2c(Nc3ccc(F)c(Cl)c3)c(N)oc2c(-c2ccccc2)n1` [Compound 105, N^3-(3-Chloro-4-fluorophenyl)-5-ethoxy-7-phenylfuro[2,3-c]pyridine-2,3-diamine] were 200 to 1000 nM, greater than 1000 nM and greater than 2000 nM.
As to `CCCc1nccc2c(Nc3ccc(F)c(Cl)c3)c(N)oc12` [Compound 77, N^3-(3-Chloro-4-fluoro-phenyl)-7-propyl-furo[2,3-c]pyridine-2,3-diamine], the IC50 is less than 200 nM in assay [1], less than 200 nM at IDO1 in HeLa cells and greater than 2000 nM in assay [2].
Take `Cc1cc(-c2nc(C)cc3c(Nc4ccc(F)c(Cl)c4)c(N)oc23)ccn1` [Compound 267, N^3-(3-Chloro-4-fluorophenyl)-5-methyl-7-(2-methylpyridin-4-yl)furo[2,3-c]pyridine-2,3-diamine]: the concentration for half-maximal inhibition (IC50) in assay [1] is less than 200 nM; at IDO1 in HeLa cells it was less than 200 nM; in assay [2], greater than 2000 nM.
On to `N#Cc1ccc2c(Nc3cccc(Br)c3)c(N)oc2c1` [Compound 115, 2-Amino-3-((3-bromophenyl)amino)benzofuran-6-carbonitrile], for which the IC50 was less than 200 nM in assay [1], less than 200 nM at IDO1 in HeLa cells and less than 500 nM in assay [2].
`Nc1oc2cnccc2c1Nc1ccc2c(c1)OCO2` [Compound 35, N^3-(Benzo[d][1,3]dioxol-5-yl)furo[2,3-c]pyridine-2,3-diamine]: the IC50 in assay [1] is 200 to 1000 nM; on IDO1 in HeLa cells, less than 200 nM; in assay [2], 500 to 2000 nM.
Consider `N#Cc1ccc(-c2nccc3c(Nc4ccc(F)c(Cl)c4)c(N)oc23)cc1` [Compound 149, 4-(2-Amino-3-((3-chloro-4-fluorophenyl)amino)furo[2,3-c]pyridin-7-yl)benzonitrile], for which the IC50 is less than 200 nM in assay [1], less than 200 nM against IDO1 in HeLa cells and 500 to 2000 nM in assay [2].
As to `Nc1oc2c(-c3ccnc(N4CCOCC4)c3)nccc2c1Nc1ccc(F)c(Cl)c1` [Compound 154, N^3-(3-Chloro-4-fluorophenyl)-7-(2-morpholinopyridin-4-yl)furo[2,3-c]pyridine-2,3-diamine], the IC50 in assay [1] is less than 200 nM; on IDO1 in HeLa cells, less than 200 nM; in assay [2] it was greater than 2000 nM.
For `CCCCNC(=O)c1cc(-c2nccc3c(Nc4ccc(F)c(Cl)c4)c(N)oc23)ccn1` [Compound 250, 4-(2-Amino-3-((3-chloro-4-fluorophenyl)amino)furo[2,3-c]pyridin-7-yl)-N-butylpicolinamide], the IC50 is less than 200 nM in assay [1], less than 200 nM on IDO1 in HeLa cells and greater than 2000 nM in assay [2].
